Measured values: publication PMC10261210 (Cancer Chemotherapy and Pharmacology, 2023)

What was measured:
pERK = pERK expression in paired tumor biopsies (H-score, image analysis); format: in vivo, human; conditions: for median percentage decrease in pERK staining, day 21 vs baseline: Q2D expansion; for median percentage decrease in pERK expression, day 21 vs baseline: QW melanoma expansion cohort
Protocol: Based on tissue availability, pharmacodynamic assays included assessment of pERK expression levels in paired biopsy samples (baseline and day 21) from patients in the melanoma dose expansion cohorts. The level of staining was assessed both by a pathologist (semi-quantitative measurements according to H-score assessment) and by quantitated image analysis (Aperio, Leica Biosystems Nussloch, Germany).

[1] = test system: patients with relapsed or refractory advanced solid tumors; test: phase 1 safety: adverse events (CTCAE v4.03), safety population; format: in vivo, human; conditions: for Fatal serious adverse event, MedDRA preferred term: patient
Protocol: Treatment was to be continued until disease progression, unacceptable toxicity, or the patient discontinued for any other reason, for a maximum duration of 12 months. Treatment could be continued beyond 12 months if it was determined that a patient would derive benefit from such continued therapy.
(§1) Adverse events were coded using the Medical Dictionary for Regulatory Activities (MedDRA) Version 19.0 and were graded according to the National Cancer Institute (NCI) Common Terminology Criteria (CTC) for adverse events (CTCAE) (Version 4.03). The assessment period for treatment emergent adverse events (TEAEs) was from the first dose of study treatment to 30 days after the last dose of study medication, or until the start of subsequent antineoplastic therapy, whichever occurred first. Following baseline evaluation, response was assessed by investigators every two cycles by computed tomography or magnetic resonance imaging according to Response Evaluation Criteria in Solid Tumors (version 1.1).
(§2) The safety population was defined as all patients who received any amount of tovorafenib. The DLT-evaluable population was defined as all patients in the dose escalation phase of the study who either experienced DLT during cycle 1 or who completed at least 75% of the planned doses and had sufficient follow-up data to allow the investigators and sponsor to determine whether DLT had occurred. […] The PK-evaluable population included all patients who had sufficient dosing data and concentration–time data to permit calculation of PK parameters.

BRAF V600E mutant = test system: BRAF V600E mutant; design: method as in doi:10.1016/S1359-6349(10)71810-3; conditions: preclinical studies; cited from earlier work
[2] = test system: relapsed or refractory advanced solid tumors, melanoma; test: response by investigator assessment (RECIST 1.1); format: in vivo, human
Source text: as §1, §2

[3] = dose expansion Cohort 1, BRAF+ Naïve, Q2D n = 16
[4] = dose expansion Cohort 2, BRAF+ Previously treated, Q2D n = 6
[5] = dose expansion Cohort 3, NRAS+ Naïve, Q2D n = 14
[6] = dose expansion Cohort 4, NRAS + Previously treated, Q2D n = 1
[7] = dose expansion Cohort 5, BRAF/NRAS WT Naïve, Q2D n = 6
[8] = dose expansion Cohort 6, BRAF/NRAS WT Previously, Q2D n = 9
[9] = dose expansion Cohort 9, NRAS+ Naïve, QW n = 17
[10] = dose expansion, Q2D n=68 (melanoma cohorts, PK cohort, unknown)

C[C@@H](NC(=O)c1ncnc(N)c1Cl)c1ncc(C(=O)Nc2cc(C(F)(F)F)c(Cl)cn2)s1 [tovorafenib]
median percentage decrease in pERK staining, day 21 vs baseline (pERK; H-score by a pathologist, BRAF mutation-positive previously treated cohort): ≥ 70% | median percentage decrease in pERK staining, day 21 vs baseline (pERK; H-score by a pathologist, BRAF mutation-positive treatment-naïve cohort): ≥ 70% | median percentage decrease in pERK staining, day 21 vs baseline (pERK; H-score by a pathologist, NRAS mutation-positive treatment-naïve cohort): ≥ 70% | median percentage decrease in pERK expression, day 21 vs baseline (pERK; H-score by a pathologist): 12% | median percentage decrease in pERK staining, day 21 vs baseline (pERK; quantitated image analysis, BRAF mutation-positive previously treated cohort): ≥ 70% | median percentage decrease in pERK staining, day 21 vs baseline (pERK; quantitated image analysis, NRAS mutation-positive treatment-naïve cohort): ≥ 70% | median percentage decrease in pERK expression, day 21 vs baseline (pERK; quantitated image analysis): 8% | Fatal serious adverse event, MedDRA preferred term ([1]; dose escalation, 20 mg Q2D, study day of death 23, Not related): Respiratory failure | Fatal serious adverse event, MedDRA preferred term ([1]; dose escalation, 80 mg Q2D, study day of death 44, Not related): Colon cancer | Fatal serious adverse event, MedDRA preferred term ([1]; dose escalation, 280 mg Q2D, study day of death 28, Related): Respiratory failure | Fatal serious adverse event, MedDRA preferred term ([1]; dose escalation, 600 mg QW, study day of death 9, Not related): Colon cancer metastatic | Fatal serious adverse event, MedDRA preferred term ([1]; dose escalation, 600 mg QW, study day of death 28, Not related): Pancreatic carcinoma | Fatal serious adverse event, MedDRA preferred term ([1]; dose escalation, 800 mg QW, study day of death 31, Not related): Cardio-respiratory arrest | on-study deaths ([1]; dose expansion phase (7%)): 7 patients | Fatal serious adverse event, MedDRA preferred term ([1]; dose expansion, Q2D, study day of death 16, Not related): Small intestinal obstruction | Fatal serious adverse event, MedDRA preferred term ([1]; dose expansion, Q2D, study day of death 26, Not related): Sepsis | Fatal serious adverse event, MedDRA preferred term ([1]; dose expansion, Q2D, study day of death 43, Not related): Pneumonia | Fatal serious adverse event, MedDRA preferred term ([1]; dose expansion, Q2D, study day of death 61, Not related): Metastatic malignant melanoma | Fatal serious adverse event, MedDRA preferred term ([1]; dose expansion, Q2D, study day of death 67, Not related): Malignant melanoma | Fatal serious adverse event, MedDRA preferred term ([1]; dose expansion, Q2D, study day of death 81, Not related): Metastatic malignant melanoma | drug-related TEAE fatigue ([1]; human, in vivo): 42% | drug-related TEAE maculo-papular rash ([1]; human, in vivo): 36% | drug-related grade 3 or higher anemia ([1]; human, in vivo): 8% | drug-related grade 3 or higher hyperbilirubinemia ([1]; human, in vivo): 10% | drug-related grade 3 or higher maculo-papular rash ([1]; human, in vivo): 9% | generalized rash leading to dose reduction ([1]; human, in vivo): 3% | grade 3 or higher anemia ([1]; human, in vivo): 14% | grade 3 or higher maculo-papular rash ([1]; human, in vivo): 8% | maculo-papular rash leading to dose reduction ([1]; human, in vivo): 5% | maculo-papular rash resulting in permanent discontinuation ([1]; human, in vivo): 3% | sepsis resulting in permanent discontinuation ([1]; human, in vivo): 3% | squamous cell carcinoma of skin reported as TEAE ([1]; human, in vivo): < 1% | on-study deaths deemed treatment related ([1]; respiratory failure, 280 mg Q2D dose escalation cohort): one | on-study deaths ([1]; whole study, 149 patients): 13 | IC50 (BRAF V600E mutant): 7.1 nM | median PFS ([2]; BRAF mutation-positive, RAF and MEK inhibitor-naïve cohort, 95% CI 1.9–14.3): 5.7 months | sustained PFS in an individual patient ([2]; BRAF mutation-positive, RAF and MEK inhibitor-naïve cohort, in response and on treatment at data cutoff): 45 months | duration of stable disease in one patient ([2]; NRAS-mutated melanoma, cohort 7): 42 months | best response of stable disease ([2]; Q2D dose escalation, 5 of 22 evaluable patients): 23% | responses ([2]; Q2D dose escalation, 22 evaluable patients): no responses | Objective response rate ([2]; Q2D expansion phase, 10 of 68 evaluable patients, 95% CI 7–25): 15% | median duration of response ([2]; Q2D expansion, 68 evaluable patients): 6.0 months | median progression-free survival (PFS) ([2]; Q2D expansion, 68 evaluable patients, 95% CI 1.8–3.6): 1.9 months | partial responses ([2]; QW dose escalation, 2 in 14 evaluable patients (endometrial cancer 600 mg, thyroid cancer 800 mg)): 14% | best response of stable disease ([2]; QW dose expansion, 9 of 17 evaluable patients): 53% | responses ([2]; QW dose expansion, 17 evaluable patients, NRAS mutation-positive melanoma naïve to RAF and MEK inhibitors): no responses | responses (partial) ([2]; cohort 1, BRAF mutation-positive melanoma, RAF and MEK inhibitor-naïve, Q2D, 8 of 16): 50% | responses ([2]; cohort 2, BRAF mutation-positive, RAF and MEK inhibitor-previously treated, Q2D, 1 of 6): 17% | responses ([2]; cohort 3, NRAS mutation-positive, RAF and MEK inhibitor-naïve, Q2D, 1 of 14): 7% | Best overall response: Complete response ([2]; dose escalation, Q2D n = 22): 0 n (%) | Best overall response: Partial response ([2]; dose escalation, Q2D n = 22): 0 n (%) | Best overall response: Progressive disease ([2]; dose escalation, Q2D n = 22): 17 (77) n (%) | Best overall response: Stable disease ([2]; dose escalation, Q2D n = 22): 5 (23) n (%) | Objective response rate ([2]; dose escalation, Q2D n = 22): 0 n (%) | Best overall response: Complete response ([2]; dose escalation, QW n = 14): 0 n (%) | Best overall response: Partial response ([2]; dose escalation, QW n = 14): 2 (14) n (%) | Best overall response: Progressive disease ([2]; dose escalation, QW n = 14): 8 (57) n (%) | Best overall response: Stable disease ([2]; dose escalation, QW n = 14): 4 (29) n (%) | Objective response rate ([2]; dose escalation, QW n = 14): 2 (14) n (%) | Best overall response: Complete response ([2]; dose escalation, Total n=36): 0 n (%) | Best overall response: Partial response ([2]; dose escalation, Total n=36): 2 (6) n (%) | Best overall response: Progressive disease ([2]; dose escalation, Total n=36): 25 (69) n (%) | Best overall response: Stable disease ([2]; dose escalation, Total n=36): 9 (25) n (%) | Objective response rate ([2]; dose escalation, Total n=36): 2 (6) n (%) | Best overall response: Complete response [2, 3]: 0 n (%) | Best overall response: Partial response [2, 3]: 8 (50) n (%) | Best overall response: Progressive disease [2, 3]: 6 (38) n (%) | Best overall response: Stable disease [2, 3]: 2 (13) n (%) | Objective response rate [2, 3]: 8 (50) n (%) | Best overall response: Complete response [2, 4]: 0 n (%) | Best overall response: Partial response [2, 4]: 1 (17) n (%) | Best overall response: Progressive disease [2, 4]: 2 (33) n (%) | Best overall response: Stable disease [2, 4]: 3 (50) n (%) | Objective response rate [2, 4]: 1 (17) n (%) | Best overall response: Complete response [2, 5]: 0 n (%) | Best overall response: Partial response [2, 5]: 1 (7) n (%) | Best overall response: Progressive disease [2, 5]: 9 (64) n (%) | Best overall response: Stable disease [2, 5]: 4 (29) n (%) | Objective response rate [2, 5]: 1 (7) n (%) | Best overall response: Complete response [2, 6]: 0 n (%) | Best overall response: Partial response [2, 6]: 0 n (%) | Best overall response: Progressive disease [2, 6]: 1 (100) n (%) | Best overall response: Stable disease [2, 6]: 0 n (%) | Objective response rate [2, 6]: 0 n (%) | Best overall response: Complete response [2, 7]: 0 n (%) | Best overall response: Partial response [2, 7]: 0 n (%) | Best overall response: Progressive disease [2, 7]: 5 (83) n (%) | Best overall response: Stable disease [2, 7]: 1 (17) n (%) | Objective response rate [2, 7]: 0 n (%) | Best overall response: Complete response [2, 8]: 0 n (%) | Best overall response: Partial response [2, 8]: 0 n (%) | Best overall response: Progressive disease [2, 8]: 6 (67) n (%) | Best overall response: Stable disease [2, 8]: 3 (33) n (%) | Objective response rate [2, 8]: 0 n (%) | Best overall response: Complete response [2, 9]: 0 n (%) | Best overall response: Partial response [2, 9]: 0 n (%) | Best overall response: Progressive disease [2, 9]: 8 (47) n (%) | Best overall response: Stable disease [2, 9]: 9 (53) n (%) | Objective response rate [2, 9]: 0 n (%) | Best overall response: Complete response [2, 10]: 0 n (%) | Best overall response: Partial response [2, 10]: 10 (15) n (%) | Best overall response: Progressive disease [2, 10]: 37 (54) n (%) | Best overall response: Stable disease [2, 10]: 21 (31) n (%) | Objective response rate [2, 10]: 10 (15) n (%) | Best overall response: Complete response ([2]; dose expansion, QW n=17): 0 n (%) | Best overall response: Partial response ([2]; dose expansion, QW n=17): 0 n (%) | Best overall response: Progressive disease ([2]; dose expansion, QW n=17): 8 (47) n (%) | Best overall response: Stable disease ([2]; dose expansion, QW n=17): 9 (53) n (%) | Objective response rate ([2]; dose expansion, QW n=17): 0 n (%) | Best overall response: Complete response ([2]; dose expansion, Total n=85): 0 n (%) | Best overall response: Partial response ([2]; dose expansion, Total n=85): 10 (12) n (%) | Best overall response: Progressive disease ([2]; dose expansion, Total n=85): 45 (53) n (%) | Best overall response: Stable disease ([2]; dose expansion, Total n=85): 30 (35) n (%) | Objective response rate ([2]; dose expansion, Total n=85): 10 (12) n (%)
